# From ChEMBL document CHEMBL4765432, “Design and synthesis of novel Flavone-based histone deacetylase inhibitors antagonizing activation of STAT3 in breast cancer” (Eur J Med Chem, 2020)
# Activity calls are given as the source filed them. The rule behind the calls is not given here.
# Columns and labels:
# [1] = test system: SUM-159-PT; test: Cytotoxicity against human SUM159PT cells assessed as reduction in cell viability incubated for 48 hrs by MTT assay; type: functional, cell-based
# [2] = test system: 4T1; test: Induction of apoptosis in mouse 4T1 cells assessed as early apoptotic cells at 5 uM incubated for 72 hrs by annexinV-FITC and PI staining based flow cytometry analysis (reference value: 1.65 %); type: functional
# [3] = test system: MCF7; test: Potency index, ratio of IC50 of SAHA to IC50 of compound for cytotoxicity against human MCF7 cells assessed as reduction in cell viability incubated for 48 hrs by MTT assay; type: functional
# [4] = test system: MDA-MB-231; test: Induction of cell cycle arrest in human MDA-MB-231 cells assessed as S phase accumulation at 2 uM incubated for 24 hrs by PI staining based flow cytometry analysis (reference value: 43.82 %); type: functional
# [5] = test system: 4T1; test: Induction of cell cycle arrest in mouse 4T1 cells assessed as increase in p21 expression at 0.25 to 5 uM incubated for 24 hrs by Western blot analysis; type: functional, cell-based; settings: dose 0.25-5 µM
# [6] = test system: MDA-MB-468; test: Cytotoxicity against human MDA-MB-468 cells assessed as reduction in cell viability incubated for 48 hrs by MTT assay; type: functional, cell-based; settings: MDA-MB-468, 48 h
# [7] = test system: MDA-MB-231; test: Induction of apoptosis in human MDA-MB-231 cells xenografted in BALB/c mouse assessed as increase in caspase-3 cleavage by immunohistochemistry method; type: functional, cell-based
# [8] = Toxicity in BALB/c mouse xenografted with mouse 4T1 cells assessed as effect on body weight at 50 mg/kg, po administered for 22 days and measured on day 22; type: organism-based; settings: in vivo, 528 h, time 22 day
# [9] = test system: SMMC-7721; test: Cytotoxicity against human SMMC-7721 cells assessed as reduction in cell viability incubated for 48 hrs by MTT assay; type: functional, cell-based; settings: SMMC-7721, 48 h
# [10] = test system: 4T1; test: Potency index, ratio of IC50 of SAHA to IC50 of compound for cytotoxicity against mouse 4T1 cells assessed as reduction in cell viability incubated for 48 hrs by MTT assay; type: functional
# [11] = target: Histone deacetylase 11 (Homo sapiens, UniProt Q96DB2); test: Inhibition of recombinant human N-terminal GST-tagged full length HDAC-11 expressed in baculovirus infected in Sf9 cells using Boc-Lys (q-Ac)-AMC as substrate incubated for 10 mins followed by substrate addition and measured after 30 mins by fluorescence based assay
# [12] = target: Histone deacetylase 1 (Homo sapiens, UniProt Q13547); test: Inhibition of recombinant human C-terminal GST-tagged full length HDAC-1 expressed in baculovirus infected in Sf9 cells using Boc-Lys (q-Ac)-AMC as substrate incubated for 10 mins followed by substrate addition and measured after 30 mins by fluorescence based assay
# [13] = Tmax in Sprague-Dawley rat at 20 mg/kg, po measured upto 12 hrs by LC-MS/MS analysis; type: ADME, organism-based; settings: in vivo
# [14] = test system: MDA-MB-231; test: Induction of cell cycle arrest in human MDA-MB-231 cells assessed as increase in p21 expression at 0.25 to 5 uM incubated for 24 hrs by Western blot analysis; type: functional, cell-based; settings: dose 0.25-5 µM
# [15] = test system: MDA-MB-231; test: Induction of apoptosis in human MDA-MB-231 cells assessed as decrease in Bcl-2 expression incubated for 48 hrs by Western blot analysis; type: functional, cell-based; settings: dose 0.5-10 µM
# [16] = test system: MDA-MB-231; test: Induction of cell cycle arrest in human MDA-MB-231 cells assessed as G2/M phase accumulation at 2 uM incubated for 24 hrs PI staining based by flow cytometry analysis (reference value: 27.08 %); type: functional
# [17] = test system: MDA-MB-231; test: Induction of apoptosis in human MDA-MB-231 cells assessed as increase in caspase-3 cleavage incubated for 48 hrs by Western blot analysis; type: functional, cell-based; settings: dose 0.5-10 µM
# [18] = target: Protein deacetylase HDAC6 (Homo sapiens, UniProt Q9UBN7); test: Inhibition of recombinant human N-terminal GST-tagged full length HDAC-6 expressed in baculovirus infected in Sf9 cells using Boc-Lys (q-Ac)-AMC as substrate incubated for 10 mins followed by substrate addition and measured after 30 mins by fluorescence based assay
# [19] = target: Histone deacetylase 2 (Homo sapiens, UniProt Q92769); test: Inhibition of recombinant human C-terminal GST-tagged full length HDAC-2 expressed in baculovirus infected in Sf9 cells using Boc-Lys (q-Ac)-AMC as substrate incubated for 10 mins followed by substrate addition and measured after 30 mins by fluorescence based assay
# [20] = test system: MDA-MB-231; test: Induction of cell cycle arrest in human MDA-MB-231 cells assessed as G0/G1 phase accumulation at 1 uM incubated for 24 hrs by PI staining based flow cytometry analysis (reference value: 29.10 %); type: functional
# [21] = test system: MDA-MB-231; test: Induction of apoptosis in human MDA-MB-231 cells assessed as necrotic cells at 2.5 uM incubated for 72 hrs by annexinV-FITC and PI staining based flow cytometry analysis (reference value: 0.330 %); type: functional
# [22] = test system: MDA-MB-231; test: Antitumor activity against human MDA-MB-231 cells xenografted in nude mouse assessed as tumor growth inhibition at 25 mg/kg, ip administered for 34 days and measured on day 34; type: functional, organism-based; settings: time 34.0 day
# [23] = target: Histone deacetylase 4 (Homo sapiens, UniProt P56524); test: (§1) Inhibition of recombinant human N-terminal GST-tagged HDAC-4 (612 to end residues) expressed in baculovirus infected in Sf9 cells using Boc-Lys (q-Ac)-AMC as substrate incubated for 10 mins followed by substrate addition and measured after 30 mins by fluorescence based assay
# [24] = target: Histone deacetylase 3 (Homo sapiens, UniProt O15379); test: Inhibition of recombinant human C-terminal GST-tagged full length HDAC-3 expressed in baculovirus infected in Sf9 cells using Boc-Lys (q-Ac)-AMC as substrate incubated for 10 mins followed by substrate addition and measured after 30 mins by fluorescence based assay
# [25] = test system: 4T1; test: Induction of cell cycle arrest in mouse 4T1 cells assessed as G2/M phase accumulation at 2 uM incubated for 24 hrs by PI staining based flow cytometry analysis (reference value: 38.51 %); type: functional
# [26] = target: Histone deacetylase 7 (Homo sapiens) (UniProt Q8WUI4); test: as §1, with “HDAC-7 (501” for “HDAC-4 (612”, “cells at 10 uM” for “cells”, “assay relative to control” for “assay”; settings: time 40.0 min
# [27] = test system: MDA-MB-231; test: Induction of apoptosis in human MDA-MB-231 cells assessed as increase in PARP cleavage incubated for 48 hrs by Western blot analysis; type: functional, cell-based; settings: dose 0.5-10 µM
# [28] = test system: PC-3; test: Cytotoxicity against human PC-3 cells assessed as reduction in cell viability incubated for 48 hrs by MTT assay; type: functional, cell-based; settings: PC-3, 48 h
# [29] = test system: NCI-H460; test: Cytotoxicity against human NCI-H460 cells assessed as reduction in cell viability incubated for 48 hrs by MTT assay; type: functional, cell-based; settings: NCI-H460, 48 h
# [30] = test system: PANC-1; test: Cytotoxicity against human PANC-1 cells assessed as reduction in cell viability incubated for 48 hrs by MTT assay; type: functional, cell-based; settings: PANC-1, 48 h
# [31] = test system: 4T1; test: Induction of cell cycle arrest in mouse 4T1 cells assessed as S phase accumulation at 1 uM incubated for 24 hrs by PI staining based flow cytometry analysis (reference value: 19.43 %); type: functional
# [32] = test system: PLC; test: Cytotoxicity against human PLC cells assessed as reduction in cell viability incubated for 48 hrs by MTT assay; type: functional, cell-based
# Sequence of Histone deacetylase 7 (Homo sapiens) (Q8WUI4 whole entry): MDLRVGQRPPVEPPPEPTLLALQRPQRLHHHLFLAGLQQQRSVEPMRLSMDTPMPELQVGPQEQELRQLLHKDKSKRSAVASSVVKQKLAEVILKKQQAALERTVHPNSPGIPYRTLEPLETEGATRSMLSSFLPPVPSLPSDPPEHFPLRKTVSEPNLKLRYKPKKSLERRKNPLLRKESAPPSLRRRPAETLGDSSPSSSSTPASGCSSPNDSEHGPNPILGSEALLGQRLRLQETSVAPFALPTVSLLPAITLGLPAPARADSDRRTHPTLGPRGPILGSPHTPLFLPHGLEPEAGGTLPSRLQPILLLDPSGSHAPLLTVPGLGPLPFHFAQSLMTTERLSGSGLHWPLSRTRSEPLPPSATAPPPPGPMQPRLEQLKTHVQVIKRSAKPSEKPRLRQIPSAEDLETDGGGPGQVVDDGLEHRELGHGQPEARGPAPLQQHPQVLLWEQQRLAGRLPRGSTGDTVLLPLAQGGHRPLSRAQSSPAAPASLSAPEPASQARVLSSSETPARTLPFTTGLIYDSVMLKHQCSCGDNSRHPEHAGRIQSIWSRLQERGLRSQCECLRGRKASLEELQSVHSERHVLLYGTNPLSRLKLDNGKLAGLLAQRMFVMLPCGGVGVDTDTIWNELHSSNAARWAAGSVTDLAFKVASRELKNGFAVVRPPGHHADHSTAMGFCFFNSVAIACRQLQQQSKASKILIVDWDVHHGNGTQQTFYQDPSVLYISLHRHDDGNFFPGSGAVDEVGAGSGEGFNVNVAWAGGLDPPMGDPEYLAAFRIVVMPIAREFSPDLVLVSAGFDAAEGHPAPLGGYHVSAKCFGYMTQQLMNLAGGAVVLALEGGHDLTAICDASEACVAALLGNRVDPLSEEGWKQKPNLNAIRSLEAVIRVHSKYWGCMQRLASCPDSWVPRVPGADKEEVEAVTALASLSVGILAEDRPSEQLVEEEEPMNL
# Sequence of Histone deacetylase 1 (Q13547 whole entry): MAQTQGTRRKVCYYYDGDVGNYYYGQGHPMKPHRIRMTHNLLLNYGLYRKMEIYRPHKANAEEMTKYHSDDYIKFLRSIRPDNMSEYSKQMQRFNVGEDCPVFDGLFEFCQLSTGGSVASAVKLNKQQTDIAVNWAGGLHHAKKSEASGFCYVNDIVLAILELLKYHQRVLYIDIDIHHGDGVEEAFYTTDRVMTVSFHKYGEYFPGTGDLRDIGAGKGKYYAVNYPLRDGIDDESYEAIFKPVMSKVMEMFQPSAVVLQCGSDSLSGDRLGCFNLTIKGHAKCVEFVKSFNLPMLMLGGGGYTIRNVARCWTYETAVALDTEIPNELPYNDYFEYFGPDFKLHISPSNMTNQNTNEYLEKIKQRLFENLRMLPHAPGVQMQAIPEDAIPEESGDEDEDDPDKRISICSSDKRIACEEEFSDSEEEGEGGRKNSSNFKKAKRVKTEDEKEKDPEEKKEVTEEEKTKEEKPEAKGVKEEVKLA
# Sequence of Histone deacetylase 2 (Q92769 whole entry): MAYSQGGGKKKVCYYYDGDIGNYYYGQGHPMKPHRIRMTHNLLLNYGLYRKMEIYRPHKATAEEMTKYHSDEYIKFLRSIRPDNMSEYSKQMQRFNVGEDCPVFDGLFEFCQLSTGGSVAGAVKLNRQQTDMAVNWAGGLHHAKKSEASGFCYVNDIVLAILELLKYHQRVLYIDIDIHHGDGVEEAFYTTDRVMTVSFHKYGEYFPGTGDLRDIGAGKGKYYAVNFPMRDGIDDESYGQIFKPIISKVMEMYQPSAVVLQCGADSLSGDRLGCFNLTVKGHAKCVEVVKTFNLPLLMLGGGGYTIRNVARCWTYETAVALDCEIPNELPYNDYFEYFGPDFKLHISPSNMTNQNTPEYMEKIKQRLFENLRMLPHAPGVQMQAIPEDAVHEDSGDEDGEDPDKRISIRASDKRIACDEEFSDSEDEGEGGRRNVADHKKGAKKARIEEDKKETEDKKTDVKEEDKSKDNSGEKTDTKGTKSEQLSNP
# Sequence of Histone deacetylase 4 (P56524 whole entry): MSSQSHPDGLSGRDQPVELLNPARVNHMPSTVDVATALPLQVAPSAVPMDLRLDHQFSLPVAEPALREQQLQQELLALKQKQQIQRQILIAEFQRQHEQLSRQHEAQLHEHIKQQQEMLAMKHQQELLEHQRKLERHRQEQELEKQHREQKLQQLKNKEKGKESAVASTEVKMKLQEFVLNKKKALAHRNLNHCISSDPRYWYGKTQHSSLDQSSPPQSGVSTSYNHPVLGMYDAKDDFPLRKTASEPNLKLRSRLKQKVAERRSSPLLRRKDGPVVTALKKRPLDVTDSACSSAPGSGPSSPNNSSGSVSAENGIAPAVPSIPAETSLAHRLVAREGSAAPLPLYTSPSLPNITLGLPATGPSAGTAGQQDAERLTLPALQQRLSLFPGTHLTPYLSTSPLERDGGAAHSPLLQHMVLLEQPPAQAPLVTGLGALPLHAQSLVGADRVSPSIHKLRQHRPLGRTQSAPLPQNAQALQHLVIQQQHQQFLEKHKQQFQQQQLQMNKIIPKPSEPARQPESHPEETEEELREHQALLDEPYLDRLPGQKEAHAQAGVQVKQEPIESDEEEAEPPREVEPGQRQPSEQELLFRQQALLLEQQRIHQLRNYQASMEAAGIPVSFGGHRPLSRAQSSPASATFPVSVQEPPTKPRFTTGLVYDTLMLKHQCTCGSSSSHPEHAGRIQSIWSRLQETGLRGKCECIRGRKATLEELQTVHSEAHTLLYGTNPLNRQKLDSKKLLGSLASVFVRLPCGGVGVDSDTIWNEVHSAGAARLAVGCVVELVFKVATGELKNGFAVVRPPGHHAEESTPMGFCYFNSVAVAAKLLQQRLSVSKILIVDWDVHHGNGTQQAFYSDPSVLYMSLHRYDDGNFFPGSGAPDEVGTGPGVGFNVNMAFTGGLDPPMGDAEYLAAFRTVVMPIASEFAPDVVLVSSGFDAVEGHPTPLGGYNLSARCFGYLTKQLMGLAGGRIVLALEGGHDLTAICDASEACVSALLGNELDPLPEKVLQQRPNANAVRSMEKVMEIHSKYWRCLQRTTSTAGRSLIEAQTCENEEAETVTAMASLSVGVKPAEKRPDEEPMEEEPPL
# Sequence of Protein deacetylase HDAC6 (Q9UBN7 whole entry): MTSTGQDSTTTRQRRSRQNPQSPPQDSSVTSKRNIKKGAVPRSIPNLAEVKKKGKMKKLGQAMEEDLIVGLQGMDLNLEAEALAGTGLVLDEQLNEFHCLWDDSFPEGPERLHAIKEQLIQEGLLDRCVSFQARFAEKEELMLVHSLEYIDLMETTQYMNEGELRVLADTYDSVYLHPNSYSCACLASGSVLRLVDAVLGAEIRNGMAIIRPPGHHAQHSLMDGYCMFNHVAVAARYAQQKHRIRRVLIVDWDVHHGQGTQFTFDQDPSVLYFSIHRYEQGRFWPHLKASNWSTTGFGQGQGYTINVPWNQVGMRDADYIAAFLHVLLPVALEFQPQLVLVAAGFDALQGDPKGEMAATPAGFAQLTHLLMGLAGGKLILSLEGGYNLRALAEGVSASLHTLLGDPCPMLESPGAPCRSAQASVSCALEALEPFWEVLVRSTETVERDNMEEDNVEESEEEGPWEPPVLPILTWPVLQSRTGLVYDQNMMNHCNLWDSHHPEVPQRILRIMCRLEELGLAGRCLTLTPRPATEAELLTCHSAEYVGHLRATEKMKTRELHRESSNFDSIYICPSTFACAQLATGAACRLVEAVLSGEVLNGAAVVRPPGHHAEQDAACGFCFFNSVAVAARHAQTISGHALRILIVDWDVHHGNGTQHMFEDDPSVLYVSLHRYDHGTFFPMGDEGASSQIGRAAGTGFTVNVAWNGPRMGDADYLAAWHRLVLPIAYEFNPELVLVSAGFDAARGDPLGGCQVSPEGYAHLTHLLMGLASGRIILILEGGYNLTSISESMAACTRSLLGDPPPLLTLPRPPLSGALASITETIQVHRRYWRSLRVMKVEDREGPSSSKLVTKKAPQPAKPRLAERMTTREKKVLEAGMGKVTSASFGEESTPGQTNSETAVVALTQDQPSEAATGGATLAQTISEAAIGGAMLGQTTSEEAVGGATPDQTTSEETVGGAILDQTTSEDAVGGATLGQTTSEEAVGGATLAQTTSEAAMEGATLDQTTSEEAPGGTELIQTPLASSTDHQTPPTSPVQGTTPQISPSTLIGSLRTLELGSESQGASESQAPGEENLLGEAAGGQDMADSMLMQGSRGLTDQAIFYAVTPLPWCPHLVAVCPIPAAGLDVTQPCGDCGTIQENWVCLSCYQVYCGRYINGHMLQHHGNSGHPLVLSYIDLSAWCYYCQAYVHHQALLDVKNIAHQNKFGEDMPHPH
# Sequence of Histone deacetylase 11 (Q96DB2 whole entry): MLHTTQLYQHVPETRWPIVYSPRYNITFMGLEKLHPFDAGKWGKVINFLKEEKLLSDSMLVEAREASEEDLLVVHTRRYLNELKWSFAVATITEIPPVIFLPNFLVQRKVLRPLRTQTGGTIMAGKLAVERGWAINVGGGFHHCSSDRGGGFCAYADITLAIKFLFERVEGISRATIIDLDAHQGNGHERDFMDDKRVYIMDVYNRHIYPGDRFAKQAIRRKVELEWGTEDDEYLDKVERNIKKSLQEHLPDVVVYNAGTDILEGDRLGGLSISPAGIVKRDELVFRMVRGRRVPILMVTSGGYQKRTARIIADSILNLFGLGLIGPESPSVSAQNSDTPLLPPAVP
# Sequence of Histone deacetylase 3 (O15379 whole entry): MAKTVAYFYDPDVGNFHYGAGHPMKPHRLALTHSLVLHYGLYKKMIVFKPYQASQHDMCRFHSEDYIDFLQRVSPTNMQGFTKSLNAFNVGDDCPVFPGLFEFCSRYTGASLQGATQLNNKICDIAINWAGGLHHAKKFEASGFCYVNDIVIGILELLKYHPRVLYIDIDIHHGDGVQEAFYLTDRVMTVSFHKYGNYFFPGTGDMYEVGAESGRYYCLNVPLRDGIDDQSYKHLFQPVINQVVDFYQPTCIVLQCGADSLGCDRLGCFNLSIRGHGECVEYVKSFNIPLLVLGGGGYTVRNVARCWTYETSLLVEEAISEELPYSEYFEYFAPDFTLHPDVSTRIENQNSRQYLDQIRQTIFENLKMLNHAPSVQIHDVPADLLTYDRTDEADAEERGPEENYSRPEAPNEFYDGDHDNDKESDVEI
structure (smiles),measurement,setting,value
CN(C)CCOc1ccc(-c2cc(=O)c3c(O)cc(OCCCCCC(=O)NO)cc3o2)cc1.Cl,IC50,[1],277 nM
same,Activity,[2],54.9%
same,Ratio IC50,[3],2
same,Activity,[4],10.21%
same,Activity,[5],Active
same,IC50,[6],3400 nM
same,Activity,[7],Active
same,Activity,[8],Non-Toxic
same,IC50,[9],530 nM
same,Ratio IC50,[10],2
same,IC50,[11],179 nM
same,IC50,[12],36 nM
same,Tmax,[13],20 min
same,Activity,[14],Active
same,Activity,[15],Dose-dependent effect
same,Activity,[16],27.89%
same,Activity,[17],Dose-dependent effect
same,IC50,[18],25.5 nM
same,IC50,[19],58.5 nM
same,Activity,[20],49.09%
same,Activity,[21],0.11%
same,TGI,[22],Active
same,IC50,[23],307 nM
same,IC50,[24],79.2 nM
same,Activity,[25],11.51%
same,inhibition,[26],43%
same,Activity,[27],Dose-dependent effect
same,IC50,[28],1920 nM
same,IC50,[29],2720 nM
same,IC50,[30],> 10000 nM
same,Activity,[31],30.99%
same,IC50,[32],582 nM
